The source made the active and inactive calls.
What was measured:
[1] = biological target: Voltage-dependent T-type calcium channel subunit alpha-1H (Homo sapiens, UniProt O95180); type: functional;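 further: channel activity triggered by adding a high calcium stimulation buffer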
[2] = biological target: Eukaryotic translation initiation factor 4E (Mus musculus, UniProt P63073); assay: blockers of eIF4G binding by eIF4E – biochemical, TR-FRET, dose response (AID 855); type: functional;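 further: potency for disrupting eIF4E binding to eIF4GI seen as loss of FRET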
[3] = biological target: DNA dC->dU-editing enzyme APOBEC-3G (Homo sapiens, UniProt Q9HC16); assay: Dose Response confirmation of small molecule APOBEC3G DNA Deaminase Inhibitors via a fluorescence-based single-stranded DNA deaminase assay. [Related pubchem assays (depositor defined):AID493012, AID493028]; type: functional
[4] = biological target: X-box-binding protein 1 (Homo sapiens, UniProt P17861); type: functional, Cricetulus griseus;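 further: confirmatory dose-response counter-screen serving a CHOP assay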
[5] = biological target: Bcl-2-like protein 10 (Homo sapiens, UniProt Q9HD36); assay: Bcl-B/TR3 peptide binding disruption – biochemical, fluorescence polarization, FITC-TR3 peptide, selectivity assay for Bfl-1 inhibitor project, primary screen (AID 748);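 further: fluorescence polarization from a fluorescein-labelled TR3 peptide binding purified Bcl-B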
[6] = biological target: Intestinal-type alkaline phosphatase (Homo sapiens, UniProt P09923); assay: Dose Response confirmation of uHTS hits from a small molecule inhibitors of human intestinal alkaline phosphatase via a luminescent assay. [Related pubchem assays (depositor defined):AID2544, AID2574]; type: functional
[7] = test system: HeLa; assay: viability loss in HeLa cells – cell-based, 24 h, cherry-picked samples, cytotoxicity control, dose response (AID 504726); type: functional; settings: Homo sapiens;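 further: potency for cytotoxicity as loss of luminescence signal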
[8] = test system: HeLa; assay: ATP-based viability loss in HeLa cells – cell-based, CellTiter-Glo luminescence, cherry-pick samples, cytotoxicity control for MITF activator project, dose response (AID 540259); type: functional; settings: Homo sapiens
[9] = biological target: T1, RNA-binding protein pos-1 (Caenorhabditis elegans, UniProt G5EF15); assay: disruptors of C. elegans POS-1 RNA interaction – biochemical, fluorescence polarization, dose response (AID 1964);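 further: purified POS-1 fused to maltose binding protein made in E. coli; potency of compounds blocking POS-1 binding to fluorescent RNA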
T1 sequence (G5EF15 whole entry): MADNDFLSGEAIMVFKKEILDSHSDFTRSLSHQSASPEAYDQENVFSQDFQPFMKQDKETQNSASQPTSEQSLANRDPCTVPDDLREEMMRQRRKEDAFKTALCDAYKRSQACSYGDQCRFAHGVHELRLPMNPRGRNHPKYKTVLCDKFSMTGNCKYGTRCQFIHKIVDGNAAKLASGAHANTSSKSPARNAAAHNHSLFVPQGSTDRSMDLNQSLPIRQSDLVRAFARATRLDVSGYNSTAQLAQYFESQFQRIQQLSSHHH

[10] = NIH3T3 cell viability loss – ATP luminescence, mouse fibroblasts, counter-screen, dose response (AID 2010); type: functional, cell-based;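 further: cells exposed to compound for about 90 hours before reading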
[11] = Trypanosoma cruzi growth suppression in host cells – NIH3T3 host cells, beta-gal luminescence, confirmation (AID 2044); type: functional, cell-based;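 further: intracellular parasites grown in NIH/3T3 mouse fibroblasts as host cells; luminescent beta-galactosidase reporter signal from transgenic T. cruzi replicating inside host cells; inhibitors lower the luminescence signal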
[12] = biological target: T2, Zinc finger protein mex-5 (Caenorhabditis elegans, UniProt Q9XUB2); assay: potency of MEX-5 RNA-binding blockers – biochemical, C. elegans, fluorescence polarization, dose response (AID 1960)
T2 sequence (Q9XUB2 whole entry): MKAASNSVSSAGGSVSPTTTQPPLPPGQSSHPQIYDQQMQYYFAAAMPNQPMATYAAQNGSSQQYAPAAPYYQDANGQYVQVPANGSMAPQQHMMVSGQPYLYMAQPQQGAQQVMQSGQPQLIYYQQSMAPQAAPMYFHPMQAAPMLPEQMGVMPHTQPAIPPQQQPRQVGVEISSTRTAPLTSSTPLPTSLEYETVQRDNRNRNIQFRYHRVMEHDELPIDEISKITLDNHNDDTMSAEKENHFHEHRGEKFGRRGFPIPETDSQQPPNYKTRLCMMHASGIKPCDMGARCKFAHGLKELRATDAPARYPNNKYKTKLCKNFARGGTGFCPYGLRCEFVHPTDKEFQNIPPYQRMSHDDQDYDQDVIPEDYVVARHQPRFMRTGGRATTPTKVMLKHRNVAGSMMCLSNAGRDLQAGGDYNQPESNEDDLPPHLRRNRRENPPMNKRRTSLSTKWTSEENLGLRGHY

[13] = test system: HEK293; assay: cells; type: functional, cell-based; settings: Homo sapiens
[14] = test system: HEK293; assay: inhibition of NOD1-driven NF-kB reporter – cell-based, luminescence, uHTS, primary screen (AID 1578); type: functional; settings: Homo sapiens
[15] = test system: HEK293; assay: cells; type: functional, cell-based; settings: Homo sapiens; remark: listed apart in the source
[16] = test system: HEK293; assay: NOD2 signaling inhibitors in MDP-stimulated cells, cell-based, uHTS, luminescence (AID 2001); type: functional; settings: Homo sapiens
[17] = biological target: Nucleotide-binding oligomerization domain-containing protein 2 (Homo sapiens, UniProt Q9HC29); assay: inhibition of NOD2-driven NF-kB reporter – cell-based, luminescence, uHTS, HEK293 (AID 1566); type: functional
[18] = test system: HEK293; assay: cells; type: functional, cell-based; settings: Homo sapiens; remark: listed apart in the source

Sequence of Bcl-2-like protein 10 (Q9HD36 whole entry): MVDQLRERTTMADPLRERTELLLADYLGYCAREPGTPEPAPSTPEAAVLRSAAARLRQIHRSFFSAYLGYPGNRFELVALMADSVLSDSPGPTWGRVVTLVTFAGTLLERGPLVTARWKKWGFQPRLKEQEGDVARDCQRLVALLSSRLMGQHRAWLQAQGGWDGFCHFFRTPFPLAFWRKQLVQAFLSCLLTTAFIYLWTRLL
Sequence of X-box-binding protein 1 (P17861 whole entry): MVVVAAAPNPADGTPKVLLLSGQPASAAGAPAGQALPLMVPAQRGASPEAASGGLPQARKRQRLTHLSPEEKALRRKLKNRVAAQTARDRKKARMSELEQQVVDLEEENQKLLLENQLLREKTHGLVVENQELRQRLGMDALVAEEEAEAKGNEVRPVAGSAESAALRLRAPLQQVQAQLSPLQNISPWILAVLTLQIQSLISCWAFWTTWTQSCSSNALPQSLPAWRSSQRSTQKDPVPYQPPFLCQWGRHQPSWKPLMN
Sequence of Eukaryotic translation initiation factor 4E (P63073 whole entry): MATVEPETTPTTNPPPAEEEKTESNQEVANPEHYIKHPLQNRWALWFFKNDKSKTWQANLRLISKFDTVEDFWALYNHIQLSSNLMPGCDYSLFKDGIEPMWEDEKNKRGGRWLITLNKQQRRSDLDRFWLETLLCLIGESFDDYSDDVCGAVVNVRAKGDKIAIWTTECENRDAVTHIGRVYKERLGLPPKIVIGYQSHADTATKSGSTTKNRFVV
Sequence of Voltage-dependent T-type calcium channel subunit alpha-1H (O95180 whole entry): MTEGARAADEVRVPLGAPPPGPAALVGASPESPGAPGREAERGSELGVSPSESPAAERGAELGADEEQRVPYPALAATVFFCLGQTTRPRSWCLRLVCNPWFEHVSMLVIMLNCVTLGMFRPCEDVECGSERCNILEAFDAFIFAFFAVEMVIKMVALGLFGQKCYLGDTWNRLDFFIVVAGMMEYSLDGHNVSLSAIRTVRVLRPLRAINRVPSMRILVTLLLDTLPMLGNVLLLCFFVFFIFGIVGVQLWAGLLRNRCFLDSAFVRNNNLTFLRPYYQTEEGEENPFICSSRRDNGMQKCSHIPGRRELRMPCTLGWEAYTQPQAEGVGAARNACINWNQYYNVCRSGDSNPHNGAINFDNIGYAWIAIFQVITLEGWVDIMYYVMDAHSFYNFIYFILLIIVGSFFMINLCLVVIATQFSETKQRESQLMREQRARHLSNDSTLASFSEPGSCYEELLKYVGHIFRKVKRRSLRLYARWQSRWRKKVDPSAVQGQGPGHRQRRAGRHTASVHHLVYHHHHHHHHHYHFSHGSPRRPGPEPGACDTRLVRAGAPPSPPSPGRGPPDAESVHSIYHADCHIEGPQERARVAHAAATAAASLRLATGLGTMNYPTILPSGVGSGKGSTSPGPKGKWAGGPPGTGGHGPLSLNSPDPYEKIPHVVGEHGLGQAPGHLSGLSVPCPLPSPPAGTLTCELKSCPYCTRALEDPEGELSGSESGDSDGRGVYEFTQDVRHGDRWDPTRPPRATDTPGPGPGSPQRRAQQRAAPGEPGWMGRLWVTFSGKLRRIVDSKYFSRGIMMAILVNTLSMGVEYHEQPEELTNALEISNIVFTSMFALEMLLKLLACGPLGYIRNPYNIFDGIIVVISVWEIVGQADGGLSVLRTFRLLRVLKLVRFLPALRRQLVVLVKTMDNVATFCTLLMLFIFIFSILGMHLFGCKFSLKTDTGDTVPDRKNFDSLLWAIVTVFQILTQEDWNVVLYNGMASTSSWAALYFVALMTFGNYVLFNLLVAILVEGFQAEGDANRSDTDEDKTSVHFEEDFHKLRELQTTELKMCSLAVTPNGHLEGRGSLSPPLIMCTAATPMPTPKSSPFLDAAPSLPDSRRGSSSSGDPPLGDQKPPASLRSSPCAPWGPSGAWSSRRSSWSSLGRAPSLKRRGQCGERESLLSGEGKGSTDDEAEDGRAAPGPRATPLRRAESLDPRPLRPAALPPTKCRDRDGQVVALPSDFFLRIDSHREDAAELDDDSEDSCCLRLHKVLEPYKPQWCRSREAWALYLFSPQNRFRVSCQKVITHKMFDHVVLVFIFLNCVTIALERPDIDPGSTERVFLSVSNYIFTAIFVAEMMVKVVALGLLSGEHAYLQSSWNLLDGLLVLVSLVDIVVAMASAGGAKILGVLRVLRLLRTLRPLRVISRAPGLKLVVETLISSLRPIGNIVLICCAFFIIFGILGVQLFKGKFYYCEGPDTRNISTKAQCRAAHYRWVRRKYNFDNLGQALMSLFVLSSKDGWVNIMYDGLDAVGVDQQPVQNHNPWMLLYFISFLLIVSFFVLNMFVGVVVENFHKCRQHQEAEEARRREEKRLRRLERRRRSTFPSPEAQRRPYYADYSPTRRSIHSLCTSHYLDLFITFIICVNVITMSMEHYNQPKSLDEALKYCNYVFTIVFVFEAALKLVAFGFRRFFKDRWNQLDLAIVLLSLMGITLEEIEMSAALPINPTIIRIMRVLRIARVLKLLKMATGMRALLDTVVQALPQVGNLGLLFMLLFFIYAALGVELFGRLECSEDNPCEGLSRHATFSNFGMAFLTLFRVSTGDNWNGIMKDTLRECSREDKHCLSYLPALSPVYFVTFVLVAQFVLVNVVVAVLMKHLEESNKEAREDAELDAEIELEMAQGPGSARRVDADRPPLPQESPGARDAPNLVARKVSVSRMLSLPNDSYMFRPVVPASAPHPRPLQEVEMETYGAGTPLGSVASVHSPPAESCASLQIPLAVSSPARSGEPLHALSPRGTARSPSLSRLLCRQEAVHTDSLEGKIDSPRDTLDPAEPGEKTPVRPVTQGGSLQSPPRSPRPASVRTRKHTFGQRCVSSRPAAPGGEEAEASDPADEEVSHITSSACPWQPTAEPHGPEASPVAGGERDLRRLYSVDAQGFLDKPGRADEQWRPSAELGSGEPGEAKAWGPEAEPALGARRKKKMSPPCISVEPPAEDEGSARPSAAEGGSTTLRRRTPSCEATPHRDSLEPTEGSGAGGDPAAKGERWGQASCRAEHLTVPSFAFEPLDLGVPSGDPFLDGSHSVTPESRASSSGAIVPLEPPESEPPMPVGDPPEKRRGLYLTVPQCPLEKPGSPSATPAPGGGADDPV
Sequence of DNA dC->dU-editing enzyme APOBEC-3G (Q9HC16 whole entry): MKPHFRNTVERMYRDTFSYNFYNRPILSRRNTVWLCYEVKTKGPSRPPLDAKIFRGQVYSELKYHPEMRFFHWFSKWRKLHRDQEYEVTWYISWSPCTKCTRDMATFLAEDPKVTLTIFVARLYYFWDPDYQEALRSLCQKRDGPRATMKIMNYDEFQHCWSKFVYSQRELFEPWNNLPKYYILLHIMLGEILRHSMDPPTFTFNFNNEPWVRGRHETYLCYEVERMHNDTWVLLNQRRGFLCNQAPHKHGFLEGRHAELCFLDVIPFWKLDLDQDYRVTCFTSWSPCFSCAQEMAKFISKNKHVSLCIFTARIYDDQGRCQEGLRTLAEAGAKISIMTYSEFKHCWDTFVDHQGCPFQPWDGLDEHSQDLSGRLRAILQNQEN
Sequence of Intestinal-type alkaline phosphatase (P09923 whole entry): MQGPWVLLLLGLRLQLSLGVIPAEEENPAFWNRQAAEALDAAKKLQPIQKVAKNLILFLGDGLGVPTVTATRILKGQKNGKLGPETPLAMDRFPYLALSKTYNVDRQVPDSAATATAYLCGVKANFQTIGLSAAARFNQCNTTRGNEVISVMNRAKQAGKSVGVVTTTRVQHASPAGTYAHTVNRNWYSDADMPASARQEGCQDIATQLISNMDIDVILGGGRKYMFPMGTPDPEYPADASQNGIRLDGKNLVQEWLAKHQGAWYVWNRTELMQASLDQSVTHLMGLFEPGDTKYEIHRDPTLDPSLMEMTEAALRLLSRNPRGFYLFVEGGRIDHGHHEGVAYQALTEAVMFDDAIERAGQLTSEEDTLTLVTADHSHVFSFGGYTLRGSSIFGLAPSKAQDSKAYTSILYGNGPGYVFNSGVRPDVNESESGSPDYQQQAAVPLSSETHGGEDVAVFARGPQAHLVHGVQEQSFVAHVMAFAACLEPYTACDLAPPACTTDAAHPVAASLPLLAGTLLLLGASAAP
Sequence of Nucleotide-binding oligomerization domain-containing protein 2 (Q9HC29 whole entry, the tested form may be a part): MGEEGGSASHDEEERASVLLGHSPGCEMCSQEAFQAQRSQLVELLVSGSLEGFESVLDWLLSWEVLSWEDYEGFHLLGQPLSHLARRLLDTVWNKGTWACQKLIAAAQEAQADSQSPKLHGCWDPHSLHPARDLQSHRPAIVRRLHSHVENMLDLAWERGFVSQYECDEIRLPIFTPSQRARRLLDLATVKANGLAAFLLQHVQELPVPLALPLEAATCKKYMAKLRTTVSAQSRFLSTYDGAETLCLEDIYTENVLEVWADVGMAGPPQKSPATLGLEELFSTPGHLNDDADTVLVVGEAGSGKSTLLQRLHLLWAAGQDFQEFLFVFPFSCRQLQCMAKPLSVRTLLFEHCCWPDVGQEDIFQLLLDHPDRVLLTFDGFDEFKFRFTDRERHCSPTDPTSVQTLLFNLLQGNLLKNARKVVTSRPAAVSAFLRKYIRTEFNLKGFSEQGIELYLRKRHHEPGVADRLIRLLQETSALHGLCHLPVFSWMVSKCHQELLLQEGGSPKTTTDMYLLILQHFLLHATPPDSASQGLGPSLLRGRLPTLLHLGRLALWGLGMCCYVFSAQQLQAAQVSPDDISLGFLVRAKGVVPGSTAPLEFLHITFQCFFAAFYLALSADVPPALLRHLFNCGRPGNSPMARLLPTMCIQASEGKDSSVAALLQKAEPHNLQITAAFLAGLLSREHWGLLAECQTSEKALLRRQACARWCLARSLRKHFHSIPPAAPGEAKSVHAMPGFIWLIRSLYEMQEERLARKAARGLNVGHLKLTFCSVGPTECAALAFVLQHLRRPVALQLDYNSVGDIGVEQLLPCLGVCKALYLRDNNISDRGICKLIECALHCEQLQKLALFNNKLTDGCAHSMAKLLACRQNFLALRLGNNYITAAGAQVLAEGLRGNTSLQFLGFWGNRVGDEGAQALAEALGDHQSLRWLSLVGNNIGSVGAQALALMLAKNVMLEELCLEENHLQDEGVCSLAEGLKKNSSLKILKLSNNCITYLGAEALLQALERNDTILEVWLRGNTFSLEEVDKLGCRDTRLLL

For `C[C@H](NC(=O)c1ccccc1Cl)C(=O)OC(C(=O)Nc1cc(C(F)(F)F)ccc1Cl)c1ccccc1` (some centres undefined), which EC50 [1] is on record?
Its EC50 is 4.07 µM (active).

For `Cc1ccc(-n2c(N)c(C(N)=O)sc2=S)cc1`, which IC50 [2] is on record?
Its IC50 is > 64 µM (inactive).

What about the IC50 [3] of the same compound?
Its IC50 is 55.1 µM (active).

With `CCCCCCSc1nsc(NC(=O)CCC)n1` as the compound, how does the “Absolute IC50 (XBP1)” value [4] read?
The value was 10 µM.

For `Cn1c(=O)n(C)c2cc(S(=O)(=O)Nc3ccccc3O)ccc21`, which IC50 [5] is on record?
Its IC50 is > 100 µM (inactive).

Which IC50 [6] does the source give for `N#Cc1c(-c2ccccc2)nc(N2CCOCC2)[nH]c1=O` here?
The IC50 was > 100 µM (inactive).

With `CN(CC(=O)Nc1c(Cl)cccc1Cl)C(=O)CCCN1C(=O)c2ccccc2C1=O` as the compound, how does the IC50 [5] read?
Its IC50 is > 100 µM (inactive).

Which AC50 [7] does the source give for `CN1CCc2c(sc(NC(=O)c3ccc4ccccc4c3)c2C(N)=O)C1` here?
Its AC50 is 35.3 µM (active).

And the AC50 [8]?
The AC50 was 24.5 µM (active).

And the EC50 [9]?
The EC50 was > 300 µM (not active).

What about the EC50 [10] of the same compound?
Its EC50 is 9.24 µM (active).

And the EC50 [11]?
Its EC50 is 3.25 µM (active).

And the EC50 [12]?
The EC50 was > 300 µM (inconclusive).

With `O=C(CN1C(=O)c2cccnc2Oc2ccc(Cl)cc21)NCCCc1ccccc1` as the compound, how does the IC50 [13] read?
The IC50 was > 20 µM (inactive).

And the EC50 [14]?
The EC50 was > 20 µM (inactive).

What about the IC50 [15] of the same compound?
Its IC50 is > 20 µM (inactive).

And the IC50 [16]?
Its IC50 is > 20 µM (inactive).

What about the EC50 [17] of the same compound?
Its EC50 is > 20 µM (inactive).

What about the IC50 [18] of the same compound?
The IC50 was > 20 µM (inactive).
